Results taken from ChEMBL document CHEMBL2331441, “Phosphodiesterase inhibitors. Part 5: hybrid PDE3/4 inhibitors as dual bronchorelaxant/anti-inflammatory agents for inhaled administration” (Bioorg Med Chem Lett, 2013).

Assays:
Cavia porcellus = experiment: Bronchodilatory activity in guinea pig assessed as inhibition of histamine-induced bronchoconstriction at 0.1 mg/kg, iv; format: functional
[1] = target: T1, 3',5'-cyclic-AMP phosphodiesterase 4B (Homo sapiens, UniProt Q07343); experiment: Inhibition of PDE4B (unknown origin) by radiochemical assay
[2] = target: cGMP-inhibited 3',5'-cyclic phosphodiesterase 3A (Homo sapiens, UniProt Q14432); experiment: Inhibition of PDE3A (unknown origin) by radiochemical assay
[3] = target: T1, 3',5'-cyclic-AMP phosphodiesterase 4B; experiment: Ratio of IC50 for KCA-1450 to compound IC50 for PDE4B (unknown origin) by radiochemical assay
Rattus norvegicus = experiment: Inhibition of LPS-induced leukocyte influx into rat lung at 100 ug/kg administered intratracheally 3 hrs prior LPS challenge; format: functional; conditions: inhaled or nasal
Homo sapiens = organism: Homo sapiens; experiment: Selectivity ratio of IC50 for PDE3A (unknown origin) to IC50 for PDE4B (unknown origin)

T1 sequence (Q07343 whole entry): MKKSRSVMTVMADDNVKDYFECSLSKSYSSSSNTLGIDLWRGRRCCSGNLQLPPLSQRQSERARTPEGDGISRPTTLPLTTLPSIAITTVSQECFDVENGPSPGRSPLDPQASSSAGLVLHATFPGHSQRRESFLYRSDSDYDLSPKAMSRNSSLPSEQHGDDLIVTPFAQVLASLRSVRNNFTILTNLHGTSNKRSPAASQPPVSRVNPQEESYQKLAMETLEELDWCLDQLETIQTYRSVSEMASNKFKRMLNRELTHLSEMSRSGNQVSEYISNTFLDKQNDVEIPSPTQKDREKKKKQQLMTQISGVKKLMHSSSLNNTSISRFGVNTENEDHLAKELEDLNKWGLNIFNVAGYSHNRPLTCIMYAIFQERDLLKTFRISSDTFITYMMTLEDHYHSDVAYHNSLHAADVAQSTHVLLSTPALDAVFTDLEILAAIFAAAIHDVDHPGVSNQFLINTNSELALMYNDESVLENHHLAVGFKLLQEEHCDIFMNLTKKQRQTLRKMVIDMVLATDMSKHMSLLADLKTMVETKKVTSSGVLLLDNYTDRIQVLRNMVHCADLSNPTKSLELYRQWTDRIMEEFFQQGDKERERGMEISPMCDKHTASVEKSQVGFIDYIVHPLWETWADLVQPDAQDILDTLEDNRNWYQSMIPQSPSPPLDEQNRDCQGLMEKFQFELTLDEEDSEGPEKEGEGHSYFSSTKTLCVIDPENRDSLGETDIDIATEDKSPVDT
cGMP-inhibited 3',5'-cyclic phosphodiesterase 3A, sequence (Q14432 whole entry): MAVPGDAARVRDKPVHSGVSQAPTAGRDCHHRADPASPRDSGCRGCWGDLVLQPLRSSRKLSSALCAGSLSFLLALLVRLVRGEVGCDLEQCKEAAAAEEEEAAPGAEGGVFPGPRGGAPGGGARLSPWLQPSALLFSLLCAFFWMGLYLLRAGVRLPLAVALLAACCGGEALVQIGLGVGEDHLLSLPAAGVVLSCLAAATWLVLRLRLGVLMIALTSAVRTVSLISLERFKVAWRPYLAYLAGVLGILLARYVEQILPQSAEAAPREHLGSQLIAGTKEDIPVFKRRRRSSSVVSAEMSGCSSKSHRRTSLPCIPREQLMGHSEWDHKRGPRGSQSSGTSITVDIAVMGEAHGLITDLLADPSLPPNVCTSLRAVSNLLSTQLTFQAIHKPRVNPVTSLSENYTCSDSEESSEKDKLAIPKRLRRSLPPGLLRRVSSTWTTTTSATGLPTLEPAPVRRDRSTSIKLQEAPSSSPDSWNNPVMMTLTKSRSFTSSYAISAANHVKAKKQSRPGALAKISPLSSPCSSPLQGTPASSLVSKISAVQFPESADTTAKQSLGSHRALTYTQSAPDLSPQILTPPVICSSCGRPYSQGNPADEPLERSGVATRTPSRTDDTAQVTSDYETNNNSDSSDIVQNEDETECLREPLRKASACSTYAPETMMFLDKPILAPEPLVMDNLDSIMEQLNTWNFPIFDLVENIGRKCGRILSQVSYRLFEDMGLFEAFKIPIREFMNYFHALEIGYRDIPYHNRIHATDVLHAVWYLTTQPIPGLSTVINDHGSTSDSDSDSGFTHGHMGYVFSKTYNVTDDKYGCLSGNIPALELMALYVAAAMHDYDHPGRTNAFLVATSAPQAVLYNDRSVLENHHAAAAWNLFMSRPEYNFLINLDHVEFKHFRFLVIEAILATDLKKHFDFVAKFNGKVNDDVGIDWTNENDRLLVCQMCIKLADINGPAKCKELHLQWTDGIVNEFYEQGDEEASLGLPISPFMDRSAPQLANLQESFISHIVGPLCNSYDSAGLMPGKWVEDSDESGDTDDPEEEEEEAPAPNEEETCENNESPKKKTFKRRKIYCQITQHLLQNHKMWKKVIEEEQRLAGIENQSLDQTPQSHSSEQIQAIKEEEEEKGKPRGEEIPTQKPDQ

Row | Structure (SMILES) | IC50 [1] | IC50 [2] | Ratio IC50 [3] | Ratio IC50 (Homo sapiens) | inhibition in vivo at 0.1 mg/kg (Cavia porcellus) | inhibition in vivo at 0.1 mg/kg (Rattus norvegicus)
1 | CCc1cc2c(C3=NN(CCCCOc4ccc(C5=NNC(=O)CC5C)cc4)C(=O)C3(C)C)ccc(OC)n2n1 (stereo not given) | 0.6 nM | 1.7 nM | – | – | 92% | –
2 | COc1ccc(C2=NN(CCCCOc3ccc(C4=NNC(=O)C4(C)C)c(F)c3F)C(=O)CC2C)c2cc(C(F)(F)F)nn12 (stereo not given) | 3.1 nM | 15 nM | – | – | – | –
3 | COc1ccc(C2=NNC(=O)CC2C)c2cc(C(F)(F)F)nn12 (racemic) | 70 nM | 2380 nM | – | – | – | –
4 | COc1ccc(C2=NN(CCCCOc3ccc(C4=NNC(=O)CC4)c(F)c3F)C(=O)C2(C)C)n2cc(C(F)(F)F)nc12 | 6.7 nM | 5 nM | – | – | 87% | 56%
5 | COc1ccc(C2=NNC(=O)C[C@@H]2C)c2cc(C(F)(F)F)nn12 | 42 nM | 360 nM | – | – | – | –
6 | CCc1cc2c(-c3ccc(=O)n(CCCCOc4ccc(C5=NNC(=O)CC5C)cc4)n3)ccc(OC)n2n1 (stereo not given) | 20 nM | 2.7 nM | – | – | 71% | –
7 | COc1ccc(C2=NN(CCCCOc3ccc(C4=NNC(=O)C4(C)C)c(F)c3)C(=O)CC2C)c2cc(C(F)(F)F)nn12 (stereo not given) | 0.3 nM | 58 nM | – | – | – | –
8 | COc1ccc(C2=NN(CCCCOc3ccc(C4=NNC(=O)C4(C)C)cc3F)C(=O)CC2C)c2cc(C(F)(F)F)nn12 (stereo not given) | 1.4 nM | 1520 nM | – | – | – | –
9 | COc1ccc(C2=NN(CCCCOc3ccc(C4=NNC(=O)CC4)c(F)c3F)C(=O)C2(C)C)c2sc(C(F)(F)F)nc12 | 0.77 nM | 6.9 nM | – | – | 96% | 51%
10 | COc1ccc(C2=NN(CCCCOc3ccc(C4=NNC(=O)C4(C)C)c(F)c3F)C(=O)C2(C)C)c2sc(C(F)(F)F)nc12 | 0.38 nM | 63 nM | – | – | 36% | –
11 | COc1ccc(C2=NN(CCCCOc3ccc(C4=NNC(=O)C4(C)C)c(F)c3F)C(=O)C2(C)C)n2cc(C(F)(F)F)nc12 | 3.2 nM | 40 nM | – | – | 76% | –

More lines, main results first:

Row | IC50 [1] | IC50 [2] | Ratio IC50 [3] | Ratio IC50 (Homo sapiens) | Structure (SMILES) | inhibition in vivo at 0.1 mg/kg (Cavia porcellus) | inhibition in vivo at 0.1 mg/kg (Rattus norvegicus)
12 | 2.7 nM | 0.27 nM | – | – | CCc1cc2c(C3=NN(CCCCOc4ccc(C5=NNC(=O)CC5C)cc4)C(=O)CC3)ccc(OC)n2n1 (stereo not given) | 28% | –
13 | 20 nM | 38000 nM | – | – | COc1ccc(C2=NN(CCCCOc3ccc(-c4ccc(=O)[nH]n4)cc3)C(=O)CC2C)c2cc(C(F)(F)F)nn12 (stereo not given) | – | –
14 | 0.5 nM | 590 nM | – | – | COc1ccc(C2=NN(CCCCOc3cccc(C4=NNC(=O)CC4C)c3)C(=O)CC2C)c2cc(C(F)(F)F)nn12 (stereo not given) | – | –
15 | 0.5 nM | 270 nM | – | – | COc1ccc(C2=NN(CCCCOc3ccc(C4=NNC(=O)C4(C)C)cc3)C(=O)CC2C)c2cc(C(F)(F)F)nn12 (stereo not given) | – | –
16 | 3 nM | 140 nM | 23 | – | COc1ccc(C2=NN(CCCOc3ccc(C4=NNC(=O)CC4C)cc3)C(=O)CC2C)c2cc(C(F)(F)F)nn12 (stereo not given) | – | –
17 | 6 nM | 40000 nM | – | – | COc1ccc(C2=NN(CCCCOc3ccc(-c4n[nH]c(=O)cc4C)cc3)C(=O)CC2C)c2cc(C(F)(F)F)nn12 (stereo not given) | – | –
18 | 0.3 nM | 15 nM | 23 | – | COc1ccc(C2=NN(CCCCOc3ccc(C4=NNC(=O)CC4C)cc3)C(=O)CC2C)c2cc(C(F)(F)F)nn12 (stereo not given) | – | –
19 | 1.7 nM | 1.2 nM | – | – | CCc1cc2c(C3=NN(CCCCOc4ccc(C5=NNC(=O)CC5C)cc4)C(=O)CC3C)ccc(OC)n2n1 (stereo not given) | 96% | –
20 | 0.064 nM | 1730 nM | – | 10000 | COc1ccc(C2=NN(CCCCOc3cccc(C4=NNC(=O)C4(C)C)c3)C(=O)CC2C)c2cc(C(F)(F)F)nn12 (stereo not given) | – | –
21 | 0.66 nM | 130 nM | 23 | – | COc1ccc(C2=NN(CCOc3ccc(C4=NNC(=O)CC4C)cc3)C(=O)CC2C)c2cc(C(F)(F)F)nn12 (stereo not given) | – | –
22 | 0.2 nM | 72 nM | 23 | – | COc1ccc(C2=NN(CCCCCOc3ccc(C4=NNC(=O)CC4C)cc3)C(=O)CC2C)c2cc(C(F)(F)F)nn12 (stereo not given) | – | –
23 | 0.1 nM | 360 nM | – | – | COc1ccc(C2=NN(CCCCOc3ccc(C4=NNC(=O)CC4)cc3)C(=O)CC2C)c2cc(C(F)(F)F)nn12 (stereo not given) | – | –
24 | 5.9 nM | 11 nM | – | – | CCc1cc2c(C3=NN(CCCOc4ccc(C5=NNC(=O)CC5C)cc4)C(=O)CC3C)ccc(OC)n2n1 (stereo not given) | – | –
25 | 2.2 nM | 5.1 nM | – | – | COc1ccc(C2=NN(CCCCOc3ccc(C4=NNC(=O)CC4)c(F)c3F)C(=O)CC2C)c2cc(C(F)(F)F)nn12 (stereo not given) | – | –
